{"source": "patent US4312867A", "about": "“Antibacterial compounds, processes for their preparation and compositions containing them” (Beecham Group Limited, priority 1979, dated 1982)", "key": {"[1]": {"system": "M bovis ATCC 25025", "test": "in vitro anti-mycoplasmal MIC, Friis' agar (Table 3)", "type": "cell-based", "experimental": "(§1) The minimum inhibitory concentrations (MIC) of the examples were determined by either:\n(§2) or (ii) by serial dilution in Friis' agar medium."}, "[2]": {"system": "M bovis NCTC 10131", "test": "in vitro anti-mycoplasmal MIC, Friis' agar (Table 3)", "type": "cell-based", "experimental": "as §1, §2"}, "[3]": {"test": "Mean serum concentrations in neonatal piglets after intramuscular or oral administration", "type": "in vivo", "conditions": "pig, 50 mg/kg", "experimental": "(f) Mean serum concentrations in neonatal piglets after intramuscular or oral administration at 50 mg/kg of 6-sulphamoylhexyl monate A\nBlood levels were assessed in neonatal piglets (2 to 4 animals per group and mean bodyweights about 2 kg). The dose was 50 mg/kg (dose solution=25 mg/ml in 25% ethanol). Doses were given by intramuscular injection and orally by stomach tube. Piglets were bled at intervals up to 6 and at 24 hours, and serum assayed microbiologically (B. subtilis ATCC 6633)."}, "[4]": {"system": "Past haemolytica PA5", "test": "MIC veterinary bacteria (Table 2), serial dilution in agar", "type": "cell-based", "conditions": "diagnostic sensitivity test agar"}}}
{"compound": "C/C(=C\\C(=O)OCCCCCCS(N)(=O)=O)CC1OCC(CC2OC2C(C)C(C)O)C(O)C1O", "note": "(stereo not shown) [Example 2, 6-Sulphamoylhexyl monate A]", "values": [{"measurement": "MIC", "setting": "[1]", "result": "< 0.02", "unit": "µg/mL"}, {"measurement": "MIC", "setting": "[2]", "result": "< 0.02", "unit": "µg/mL"}, {"measurement": "concentration at 10 min", "setting": "[3]; im", "result": 31400, "unit": "ng/mL"}, {"measurement": "concentration at 20 min", "setting": "[3]; im", "result": 31200, "unit": "ng/mL"}, {"measurement": "concentration at 40 min", "setting": "[3]; im", "result": 23700, "unit": "ng/mL"}, {"measurement": "concentration at 1 h", "setting": "[3]; im", "result": 17300, "unit": "ng/mL"}, {"measurement": "concentration at 2 h", "setting": "[3]; im", "result": 9200, "unit": "ng/mL"}, {"measurement": "concentration at 3 h", "setting": "[3]; im", "result": 3200, "unit": "ng/mL"}, {"measurement": "concentration at 4 h", "setting": "[3]; im", "result": 1020, "unit": "ng/mL"}, {"measurement": "concentration at 5 h", "setting": "[3]; im", "result": "< 600", "unit": "ng/mL"}, {"measurement": "concentration at 10 min", "setting": "[3]; po", "result": 5900, "unit": "ng/mL"}, {"measurement": "concentration at 20 min", "setting": "[3]; po", "result": 8300, "unit": "ng/mL"}, {"measurement": "concentration at 40 min", "setting": "[3]; po", "result": 8600, "unit": "ng/mL"}, {"measurement": "concentration at 1 h", "setting": "[3]; po", "result": 5900, "unit": "ng/mL"}, {"measurement": "concentration at 2 h", "setting": "[3]; po", "result": 1800, "unit": "ng/mL"}, {"measurement": "concentration at 3 h", "setting": "[3]; po", "result": 1500, "unit": "ng/mL"}, {"measurement": "concentration at 4 h", "setting": "[3]; po", "result": 740, "unit": "ng/mL"}, {"measurement": "concentration at 5 h", "setting": "[3]; po", "result": "< 510", "unit": "ng/mL"}]}
{"compound": "C/C(=C\\C(=O)OCCCS(=O)(=O)N(C)C)CC1OCC(CC2OC2C(C)C(C)O)C(O)C1O", "note": "(stereo not shown) [Example 4, 3-N,N-Dimethylsulphamoylpropyl monate A]", "values": [{"measurement": "MIC", "setting": "[4]", "result": 10, "unit": "µg/mL"}]}
